Earlier results, collected in patent publication EP4092126A1, “A METHOD OF ENZYMATIC REDUCTION OF THE OXIDIZED NICOTINAMIDE ADENINE DINUCLEOTIDE AND CARBOXYLIC ACIDS” (priority 2021, dated 2022).
Where two headings read alike, the source gives them in different places.

Legend:
[1] = tested on: [NiFe] dehydrogenase from Ralstonia eutropha; details: same Km expressed as per cent H2
[2] = target: [NiFe] dehydrogenase from Ralstonia eutropha (Cupriavidus necator, UniProt P22317+P22320)
[3] = target: T1, AOR (Aromatoleum aromaticum, UniProt Q5P142+Q5P143); details: 1 mM benzaldehyde, pH 8.0, 28°C, anaerobic; read-out: Km versus NAD^+
T1 sequence (Q5P143 1-616): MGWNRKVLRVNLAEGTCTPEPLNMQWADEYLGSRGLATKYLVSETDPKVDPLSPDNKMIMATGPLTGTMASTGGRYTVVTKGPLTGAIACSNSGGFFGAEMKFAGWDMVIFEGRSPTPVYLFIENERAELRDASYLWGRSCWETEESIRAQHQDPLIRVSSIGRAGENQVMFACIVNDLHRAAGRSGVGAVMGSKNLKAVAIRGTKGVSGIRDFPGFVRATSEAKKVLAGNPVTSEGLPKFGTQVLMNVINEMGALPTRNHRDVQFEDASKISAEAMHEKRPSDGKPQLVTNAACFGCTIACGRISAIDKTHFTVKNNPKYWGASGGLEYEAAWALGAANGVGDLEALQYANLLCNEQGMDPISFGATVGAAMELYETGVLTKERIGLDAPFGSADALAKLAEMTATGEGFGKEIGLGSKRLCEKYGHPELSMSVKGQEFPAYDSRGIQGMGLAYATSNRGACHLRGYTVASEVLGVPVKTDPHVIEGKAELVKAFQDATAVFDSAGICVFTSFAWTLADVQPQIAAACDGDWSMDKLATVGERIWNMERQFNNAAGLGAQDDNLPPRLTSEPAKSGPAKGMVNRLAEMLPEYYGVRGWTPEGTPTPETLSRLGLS
T1 sequence (Q5P142 1-424): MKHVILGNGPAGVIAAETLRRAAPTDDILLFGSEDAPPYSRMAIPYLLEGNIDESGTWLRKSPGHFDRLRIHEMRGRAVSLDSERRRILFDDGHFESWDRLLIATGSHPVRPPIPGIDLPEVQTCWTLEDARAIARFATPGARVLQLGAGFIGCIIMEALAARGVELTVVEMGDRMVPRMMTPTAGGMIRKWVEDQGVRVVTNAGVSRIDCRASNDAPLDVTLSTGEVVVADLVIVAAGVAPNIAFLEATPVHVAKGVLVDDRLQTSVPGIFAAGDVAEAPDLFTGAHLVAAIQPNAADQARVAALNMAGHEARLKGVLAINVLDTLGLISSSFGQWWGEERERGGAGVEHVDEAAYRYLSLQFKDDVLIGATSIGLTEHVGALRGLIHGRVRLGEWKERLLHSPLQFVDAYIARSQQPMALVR
T1 sequence (Q5P144 1-158 partner): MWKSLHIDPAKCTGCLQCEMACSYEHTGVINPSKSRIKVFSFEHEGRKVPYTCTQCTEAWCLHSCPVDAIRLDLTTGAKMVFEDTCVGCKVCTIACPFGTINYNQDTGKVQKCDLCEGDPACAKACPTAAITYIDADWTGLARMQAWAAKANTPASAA

[4] = target: T2, phosphine dehydrogenase (PTDH) (Stutzerimonas stutzeri, UniProt O69054); details: read-out: Km (NAD^+)
T2 sequence (O69054 1-336): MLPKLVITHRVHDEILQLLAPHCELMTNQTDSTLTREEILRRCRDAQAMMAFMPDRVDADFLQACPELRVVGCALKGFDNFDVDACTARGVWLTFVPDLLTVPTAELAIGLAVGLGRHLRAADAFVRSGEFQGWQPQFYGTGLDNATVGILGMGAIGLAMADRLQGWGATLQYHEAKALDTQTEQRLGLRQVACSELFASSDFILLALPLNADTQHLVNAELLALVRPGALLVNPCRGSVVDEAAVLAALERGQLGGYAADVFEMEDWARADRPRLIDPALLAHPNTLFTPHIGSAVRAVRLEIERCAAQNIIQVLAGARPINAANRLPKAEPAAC

[5] = target: AOR enzyme from Thermococcus strain ES-1; details: reducing acetic acid to acetaldehyde with reduced methyl viologen
[6] = tested on: tungsten aldehyde oxidoreductase (AOR) from A. aromaticum; details: 1 mM benzaldehyde, re-oxidized with NAD+, pH 8.0, 28°C, anaerobic conditions

[NiFe] dehydrogenase from Ralstonia eutropha (Cupriavidus necator, UniProt P22317+P22320), sequence (P22318 whole entry): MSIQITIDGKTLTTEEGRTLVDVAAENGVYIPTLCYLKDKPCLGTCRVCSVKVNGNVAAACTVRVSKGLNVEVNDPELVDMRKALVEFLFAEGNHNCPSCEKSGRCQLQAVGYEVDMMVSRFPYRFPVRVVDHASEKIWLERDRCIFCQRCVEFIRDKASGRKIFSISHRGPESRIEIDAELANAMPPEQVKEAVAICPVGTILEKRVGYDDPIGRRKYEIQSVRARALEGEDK
[NiFe] dehydrogenase from Ralstonia eutropha (Cupriavidus necator, UniProt P22317+P22320), sequence (P22320 1-464): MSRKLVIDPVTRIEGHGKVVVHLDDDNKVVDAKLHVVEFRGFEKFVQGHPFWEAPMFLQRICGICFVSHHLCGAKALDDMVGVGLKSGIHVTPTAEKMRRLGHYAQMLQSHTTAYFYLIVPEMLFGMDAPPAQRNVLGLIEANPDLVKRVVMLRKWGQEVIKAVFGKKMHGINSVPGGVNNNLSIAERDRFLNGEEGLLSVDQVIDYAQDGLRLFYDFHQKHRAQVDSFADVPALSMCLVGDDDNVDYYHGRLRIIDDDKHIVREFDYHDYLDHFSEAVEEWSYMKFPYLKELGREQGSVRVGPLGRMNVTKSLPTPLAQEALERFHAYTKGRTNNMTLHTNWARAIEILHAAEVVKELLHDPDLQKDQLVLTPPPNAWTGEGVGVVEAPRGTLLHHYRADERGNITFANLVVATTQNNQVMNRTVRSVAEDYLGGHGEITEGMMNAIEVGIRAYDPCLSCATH
[NiFe] dehydrogenase from Ralstonia eutropha (Cupriavidus necator, UniProt P22317+P22320), sequence (P22319 whole entry, further chain): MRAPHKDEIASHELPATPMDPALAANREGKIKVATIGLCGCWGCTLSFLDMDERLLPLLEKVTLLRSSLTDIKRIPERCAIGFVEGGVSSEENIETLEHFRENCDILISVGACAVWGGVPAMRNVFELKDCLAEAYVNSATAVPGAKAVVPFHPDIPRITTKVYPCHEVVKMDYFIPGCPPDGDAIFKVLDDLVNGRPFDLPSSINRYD
[NiFe] dehydrogenase from Ralstonia eutropha (Cupriavidus necator, UniProt P22317+P22320), sequence (P22317 whole entry): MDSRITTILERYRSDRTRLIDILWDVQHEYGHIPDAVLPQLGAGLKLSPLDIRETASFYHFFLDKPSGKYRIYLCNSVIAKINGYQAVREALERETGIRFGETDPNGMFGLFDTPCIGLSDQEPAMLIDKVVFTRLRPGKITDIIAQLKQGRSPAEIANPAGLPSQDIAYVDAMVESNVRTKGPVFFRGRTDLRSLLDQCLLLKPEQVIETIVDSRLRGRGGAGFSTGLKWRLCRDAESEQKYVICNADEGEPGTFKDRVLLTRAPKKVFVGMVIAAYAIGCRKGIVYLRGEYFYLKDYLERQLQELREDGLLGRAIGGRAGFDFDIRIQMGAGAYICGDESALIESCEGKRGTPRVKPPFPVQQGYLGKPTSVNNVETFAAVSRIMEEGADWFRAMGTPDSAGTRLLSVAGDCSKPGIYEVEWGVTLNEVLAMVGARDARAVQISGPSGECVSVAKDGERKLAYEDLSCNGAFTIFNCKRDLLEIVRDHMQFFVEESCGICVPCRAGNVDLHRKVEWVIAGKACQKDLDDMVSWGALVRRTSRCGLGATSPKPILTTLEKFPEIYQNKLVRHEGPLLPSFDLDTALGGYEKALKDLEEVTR

In the case of hydrogen [H2], the “Km (hydrogen), as H2 content” value [1] is given as 1.4-5 % H2.

In the case of [HH] [hydrogen], the Km ([2]; 1.4-5% H2, read-out: Km (hydrogen)) is listed as 11 to 37 µM and the Ki ([2]; hyperbaric conditions, read-out: Ki (inhibition by H2)) is listed as 1460 µM.

In the case of NC(=O)c1ccc[n+]([C@@H]2O[C@H](COP(=O)([O-])OP(=O)(O)OC[C@H]3O[C@@H](n4cnc5c(N)ncnc54)[C@H](O)[C@@H]3O)[C@@H](O)[C@H]2O)c1 [NAD^+, nicotinamide adenine dinucleotide], the Km [3] is given as 63 µM, the Km [4] is given as 53 µM and the Km ([2]; read-out: Km (NAD^+)) is given as 560 µM.

In the case of CC(=O)O [acetic acid], the “kinetic rate constant (kcat)” value [5] is listed as 1.6 turnovers of the catalyzed reaction per second.

For NC(=O)c1ccc[n+]([C@@H]2O[C@H](COP(=O)([O-])OP(=O)(O)OC[C@H]3O[C@@H](n4cnc5c(N)ncnc54)[C@H](O)[C@@H]3O)[C@@H](O)[C@H]2O)c1 [NAD+, nicotinamide adenine dinucleotide], the “maximum observed reaction rate, Vmax” value [6] is listed as 12.5 mM/min/mg.
